{
  "source": "patent US20070298144A1",
  "about": "“Method for Protecting Bioactive Food Ingredients Using Decoy Ingredients” (COMPAGNIE GERVAIS DANONE, priority 2004, published 2007)",
  "key": {"[1]": {"test_system": "experimental arterial thrombosis", "settings": "Rat and guinea pig with experimental arterial thrombosis; after IV injection; Drouet 1990; cited from earlier work"}, "platelet aggregation": {"test_system": "platelet aggregation", "settings": "In vitro; Jollès 1986; Raha 1988; cited from earlier work"}, "arterial pressure [2]": {"test_system": "arterial pressure", "settings": "Normal rats; Nakamura 1995; cited from earlier work"}, "arterial pressure [3]": {"test_system": "arterial pressure", "settings": "Hypertensive rats; after ingestion; Nakamura 1995; cited from earlier work"}, "arterial pressure [4]": {"test_system": "arterial pressure", "settings": "Hypertensive humans (36 subjects); 8 weeks of ingestion of 95 ml/d; Hata 1996; cited from earlier work"}, "[5]": {"test_system": "mouse peritoneal macrophages", "settings": "In vitro; Parker 1996; cited from earlier work"}, "[6]": {"test_system": "ferment consisting of a mixture of the strains I-2783, I-2774, I-2835 and I-1968, or YC-380", "experiment": "Fermentation of dairy mix supplemented with Lactium; residual peptides by HPLC-MS/MS", "parameters": "species or system lactic bacteria", "settings": "1.5 g/l Lactium added before fermentation; four-strain ferment or YC-380; to pH 4.70", "procedure": "The medium was prepared by hydration of powdered skim milk to 120 g/l, supplemented with 1.5 g/l of Lactium® (corresponding to approximately 30 mg/l of the bioactive αS1 [91-100] peptide), then pasteurized at 95° C. for 8 minutes.\nThe lactic ferment was added in a proportion of 0.02% and fermentation was carried out at the optimal temperature for the selected ferment (37-42° C.) until a pH of 4.70 was reached.\nAfter centrifugation, the supernatant constituted the representative sample of the peptide content of the fermented medium. • Said sample was injected into an Agilent 1100 HPLC system (Agilent Technologies France, 1 rue Galvani, 91745 Massy Cedex, France), equipped with a Waters Symetry® column suitable for peptide analysis (5 μm, 2.1×150 mm, WAT056975, Waters France, 5, rue Jacques Monod, 78280 Guyancourt) at a temperature of 40° C. and a flow rate of 0.25 ml/min. […] For example, the αS1 [91-100] peptide was isolated from its mass (doubly charged ion of mass 634.5 Da) and quantified from the intensity of its characteristic daughter ions after fragmentation (ions for m/z=991.5 Da, 771.5 Da and 658.3 Da). […]"}, "[7]": {"experiment": "Fermented product heat treated at 75° C for 1 minute, storage at 10° C (FIG. 5)", "settings": "75° C. for approximately 1 min; stored at 10° C. until UBD", "procedure": "Since the consumption of the bioactive peptide is caused by the metabolic activity of the ferments, it may be considered useful to reduce this phenomenon by destroying all or part of the microorganisms, for example using a suitable heat treatment (thermization or pasteurization).\nFIG. 5: Curves illustrating the evolution of the residual content in bioactive αS1 [91-100] peptide added after fermentation in a fermented product which was then heat treated at 75° C. for 1 minute and then stored at 10° C. until the use-by date (UBD)."}, "Lactobacillus I-1519": {"test_system": "Lactobacillus I-1519", "experiment": "Fermentation of Lactium milk by pure strain", "settings": "dairy mix containing 1.5 g/l of Lactium; pure strain I-1519; stopped at pH 4.7", "procedure": "(§1) After centrifugation, the supernatant constituted the representative sample of the peptide content of the fermented medium. • Said sample was injected into an Agilent 1100 HPLC system (Agilent Technologies France, 1 rue Galvani, 91745 Massy Cedex, France), equipped with a Waters Symetry® column suitable for peptide analysis (5 μm, 2.1×150 mm, WAT056975, Waters France, 5, rue Jacques Monod, 78280 Guyancourt) at a temperature of 40° C. and a flow rate of 0.25 ml/min. The peptides were eluted in a conventional way with an increasing gradient of solvent B (acetonitrile and 0.100% formic acid) in solvent A (water and 0.106% formic acid) for a period of 40 minutes to 2 hours as a function of the resolution desired. • Detection was carried out using a specific MS/MS detector, for example with an ionic trap device such as the Esquire 3000+(Bruker Daltonique, rue de l'Industrie, 67166 Wissembourg Cedex) set either for overall analysis of peptide content (MS-MS mode) or for the precise and specific quantification of a peptide from its characteristic fragments. For example, the αS1 [91-100] peptide was isolated from its mass (doubly charged ion of mass 634.5 Da) and quantified from the intensity of its characteristic daughter ions after fragmentation (ions for m/z=991.5 Da, 771.5 Da and 658.3 Da). In an even more precise manner, an internal standard comprised of the same doubly deuterated synthetic peptide (993.5 Da characteristic fragment) made it possible to take into account and to exclude potential interference related to the matrix.\n(§2) In order to verify that this phenomenon was not specific to the two ferments used in paragraph 1.1) above, the principle industrial ferments, as well as various pure strains used in the composition of said ferments, were examined using the same test: milk reconstituted from powdered milk, to which Lactium® was added in an amount of 1.5 g/l, was fermented under standard conditions (optimal temperature for the ferment between 37° C. and 42° C., fermentation stopped at pH 4.7, two repetitions). Analysis of the level of bioactive αS1 [91-100] peptide was then carried out on the sample before and after fermentation.\n(§3) In table 3 above, which reflects the consumption of the bioactive αS1 [91-100] peptide by various ferments and industrial strains during the fermentation of a dairy mix containing 1.5 g/l of Lactium®, the pure strains were identified by their CNCM (Pasteur Institute, Paris, France) number and deposit date."}, "Lactobacillus I-1968": {"test_system": "Lactobacillus I-1968", "experiment": "Fermentation of Lactium milk by pure strain", "settings": "dairy mix containing 1.5 g/l of Lactium; pure strain I-1968; stopped at pH 4.7", "procedure": "as §1, §2, §3"}, "S. thermophilus I-1630": {"test_system": "S. thermophilus I-1630", "experiment": "Fermentation of Lactium milk by pure strain", "settings": "dairy mix containing 1.5 g/l of Lactium; pure strain I-1630; stopped at pH 4.7", "procedure": "as §1, §2, §3"}, "Lactobacillus I-1632": {"test_system": "Lactobacillus I-1632", "experiment": "Fermentation of Lactium milk by pure strain", "settings": "dairy mix containing 1.5 g/l of Lactium; pure strain I-1632; stopped at pH 4.7", "procedure": "as §1, §2, §3"}, "S. thermophilus I-1477": {"test_system": "S. thermophilus I-1477", "experiment": "Fermentation of Lactium milk by pure strain", "settings": "dairy mix containing 1.5 g/l of Lactium; pure strain I-1477; stopped at pH 4.7", "procedure": "as §1, §2, §3"}, "Lactobacillus I-2809": {"test_system": "Lactobacillus I-2809", "experiment": "Fermentation of Lactium milk by pure strain", "settings": "dairy mix containing 1.5 g/l of Lactium; pure strain I-2809; stopped at pH 4.7", "procedure": "as §1, §2, §3"}, "[8]": {"test_system": "ferment containing strains I-2783, I-2774, I-2835 and I-1968", "experiment": "Peptide added after fermentation, storage at 10° C (FIG. 4)", "parameters": "species or system lactic bacteria", "procedure": "FIG. 4: Curves illustrating the evolution of the residual content in bioactive αS1 [91-100] peptide in a final product comprised of 95% mass fermented by the ferment containing strains I-2783, I-2774, I-2835 and I-1968 and 5% flavored sugar syrup containing the αS1 [91-100] peptide, during storage at 10° C. The experiment was comprised of four independent tests: E1, E2, E3 and E4.\nA logical alternative to the procedure studied above is to introduce the functional ingredient after fermentation (“delayed differentiation” procedure), for example with the syrup used to flavor the fermented mass."}, "[9]": {"settings": "In vivo animal; Migliore-Samour 1988; cited from earlier work"}, "Staphylococcus aureus": {"test_system": "Staphylococcus aureus", "settings": "Mouse, sheep; IM injection; Lahov 1996; cited from earlier work"}, "[10]": {"test_system": "Hansen YC-380 lactic ferment", "experiment": "Fermentation of dairy mix containing DMV C12 hydrolysate (FIG. 3)", "parameters": "species or system lactic bacteria", "settings": "1.5 g/l of DMV C12 hydrolysate, fermentation up to pH 4.7", "description": "FIG. 3: Compared peptide profiles (LC-MS/MS chromatograms) of a dairy “mix” containing 1.5 g/l of DMV C12® hydrolysate, before (1) and after (2) fermentation up to pH 4.7 by the Hansen YC-380 lactic ferment. Virtually all of the hydrolysate peptides, including the bioactive C12 peptide (αS1 [23-34] fragment), disappeared following metabolism by the ferment strains.\nIn addition, in order to verify that this phenomenon was not specific to Lactium®, several combinations of ferments and other ingredients containing bioactive peptides were studied by implementing the same test (reconstituted milk and an ingredient to be tested in an amount of 1.5 g/l, fermented under standard conditions, fermentation stopped at pH 4.7, two repetitions)."}},
  "note": "Several values for one entry are separate records, joined by “and”; a condition that tells them apart may be missing. Identical values can stand only once. Entries after “also recorded” stand apart in the source; their conditions may differ. Like-named read-outs stand apart in the source and are kept apart here. Where no end group is shown, it is not given here.",
  "data": [
    {"substance": "Human lactotransferrin tetrapeptide (39-42): Human lactotransferrin tetrapeptide (39-42) (RDSP; UniProt P02788 58-61, looked up, fragment)", "values": [
      {"measurement": "antithrombotic activity", "setting": "[1]", "result": "after IV injection, antithrombotic"},
      {"measurement": "platelet aggregation", "setting": "platelet aggregation", "result": "Inhibition of platelet"}
    ]},
    {"substance": "II-Pro-Pro", "values": [
      {"measurement": "arterial pressure", "setting": "arterial pressure [2]", "result": "Normal rats: no effect"},
      {"measurement": "arterial pressure", "setting": "arterial pressure [3]", "result": "ingestion, decrease in arterial"},
      {"measurement": "arterial pressure", "setting": "arterial pressure [4]", "result": "decrease in arterial pressure"}
    ]},
    {"substance": "Human β-casein 54-59: Human β-casein 54-59 (VEPIPY; UniProt P05814 69-74, looked up, fragment)", "values": [
      {"measurement": "sheep red blood cell phagocytosis by mouse peritoneal macrophages", "setting": "[5]", "result": "Stimulation of sheep red blood"}
    ]},
    {"substance": "Peptide 106-116 of bovine κ-casein: Peptide 106-116 of bovine κ-casein (MAIPPKKNQDK; UniProt P02668 127-137, looked up, fragment)", "values": [
      {"measurement": "platelet aggregation", "setting": "platelet aggregation", "result": "Inhibition of platelet"}
    ]},
    {"substance": "αS1 [91-100] peptide: peptide with anti-convulsive properties contained in milk protein hydrolysates, marketed by Ingredia under the name Lactium® (YLGYLEQLLR; UniProt P02662 106-115, looked up, fragment)", "values": [
      {"measurement": "bioactive αS1 [91-100] peptide consumed after fermentation", "setting": "[6]", "result": "more than 95%"},
      {"measurement": "stability of αS1 [91-100] peptide in heat-treated fermented product", "setting": "[7]", "result": "possible to assure the stability; also recorded: possible to preserve"},
      {"measurement": "% of αS1 [91-100] peptide remaining after fermentation", "setting": "Lactobacillus I-1519", "result": 0.1, "unit": "%"},
      {"measurement": "% of αS1 [91-100] peptide remaining after fermentation", "setting": "Lactobacillus I-1968", "result": 1.6, "unit": "%"},
      {"measurement": "% of αS1 [91-100] peptide remaining after fermentation", "setting": "S. thermophilus I-1630", "result": 0.3, "unit": "%"},
      {"measurement": "% of αS1 [91-100] peptide remaining after fermentation", "setting": "Lactobacillus I-1632", "result": 0.2, "unit": "%"},
      {"measurement": "% of αS1 [91-100] peptide remaining after fermentation", "setting": "S. thermophilus I-1477", "result": 0.3, "unit": "%"},
      {"measurement": "% of αS1 [91-100] peptide remaining after fermentation", "setting": "Lactobacillus I-2809", "result": 0.4, "unit": "%"},
      {"measurement": "initial quantity of active peptide left on the use-by date (UBD)", "setting": "[8]; added cold (4° C.) after fermentation, 1.5 g of Lactium per kg of final product, storage at 10° C.", "result": "30-40%"},
      {"measurement": "αS1 [91-100] peptide disappeared during storage of the final product", "setting": "[8]; after 10 days, fresh products whose UBD is 28 days", "result": "35-50% and 35-55%"}
    ]},
    {"substance": "Casein 191-193: Bovine β-casein, Casein 191-193 (LLY; UniProt P02666 206-208, looked up, fragment)", "values": [
      {"measurement": "protection in vivo", "setting": "[9]", "result": "No protection in vivo"}
    ]},
    {"substance": "α-lactalbumin 51-53: α-lactalbumin 51-53 (GLF; UniProt P00711 70-72, looked up, fragment)", "values": [
      {"measurement": "sheep red blood cell phagocytosis by mouse peritoneal macrophages", "setting": "[5]", "result": "Stimulation of sheep red blood"}
    ]},
    {"substance": "RPKHPIKHQGLPQEVLNENLLRF [αS1B-casein fragment (1-23 N terminal)]", "values": [
      {"measurement": "efficacy against Staphylococcus aureus", "setting": "Staphylococcus aureus", "result": "Mouse, sheep: effective via IM injection"}
    ]},
    {"substance": "Casein 63-68: Bovine β-casein, Casein 63-68 (PGPIPN; UniProt P02666 78-83, looked up, fragment)", "values": [
      {"measurement": "protection in vivo", "setting": "[9]", "result": "No protection in vivo"}
    ]},
    {"substance": "Val-Pro-Pro", "values": [
      {"measurement": "arterial pressure", "setting": "arterial pressure [2]", "result": "Normal rats: no effect"},
      {"measurement": "arterial pressure", "setting": "arterial pressure [3]", "result": "ingestion, decrease in arterial"},
      {"measurement": "arterial pressure", "setting": "arterial pressure [4]", "result": "decrease in arterial pressure"}
    ]},
    {"substance": "C12 peptide: bioactive C12 peptide (αS1 [23-34] fragment) of DMV C12® hydrolysate (FFVAPFPEVFGK; UniProt P02662 38-49, looked up, fragment)", "values": [
      {"measurement": "hydrolysate peptides after fermentation (LC-MS/MS peptide profile)", "setting": "[10]", "result": "disappeared"}
    ]}
  ]
}
